Source: patent publication US20170368104A1, “INDUCTION OF TOLERANCE IN LUNG ALLOGRAFT TRANSPLANTATION” (Washington University, priority 2013, published 2017)

Test system: B6 CD45.1^+ CD4^+ T cells
Experiment: In vitro mixed lymphocyte reaction, CD4+ responders
Assay type: cell-based, mouse
Settings: agent added to MLR containing accepting allograft-derived CD8+ T cells
Experimental: In vitro mixed lymphocyte reactions were performed in round bottom 96-well plates using 3×10^5 T cell-depleted Balb/c splenocyte stimulators with 10^5 CFSE-labeled B6 CD45.1^+ CD4^+ or CD8^+ T cell responders and, as indicated, 10^5 CD8^+ T cells isolated from lungs or spleens of immunosuppressed B6 recipients of Balb/c allografts. For some experiments central and effector memory T cells were sorted from lungs of resting mice. T cell responses were evaluated flow cytometrically on day 5. All compounds inhibiting the metabolism of essential amino acids were obtained from Sigma-Aldrich (St. Louis, Mo.) and added to the co-cultures as previously described for the duration of the experiment (41).

| SMILES | CD8+ T cell-mediated suppression of CD4+ T lymphocyte proliferation |
| --- | --- |
| NC(=NCCC[C@H](N)C(=O)O)N[N+](=O)[O-] [L-NNA, NG-nitro-L-Arginine; L-NG-Nitroarginine] | able to attenuate |
| N=C(N)NCCC[C@H](N)C(=O)O [L-arginine] | did not reverse |
| CCC[C@H](N)C(=O)O [L-novaline] | did not affect proliferation |
| Cn1cc(C[C@H](N)C(=O)O)c2ccccc21 [1-methyl-tryptophan] | did not affect proliferation |
| CC(=N)NCCCC[C@H](N)C(=O)O.Cl.Cl [L-nil, N6-(1-iminoethyl)-L-lysine, dihydrochloride] | able to attenuate |
